Several values for one entry are separate records, joined by “and”; a condition that tells them apart may be missing. Identical values can stand only once. Like-named read-outs stand apart in the source and are kept apart here.
Tests used:
C6 glioma cells [1] = experiment: LDH cytotoxicity (cell lysis) assay on C6 cells; format: cell-based; settings: 48 h, dose-response 0.03 to 60 µM
Method: (§1) Cell culture: Rat C6 glioma cells were purchased from the American Type Culture Collection (CC-107) and maintained in Dulbecco’s Modified Eagle Medium (Life Technologies, Carlsbad, CA, USA; 10569) with 5% (v/v) fetal bovine serum (FBS, Atlanta Biologicals) and 100 U mL−1 of penicillin and streptomycin (Life Technologies). Cells were incubated at 37 °C with 5% CO2 humidified atmosphere. As a glioma cell line, C6 cells are highly susceptible to phenotypic drift, which can lead to varying expression levels of receptors and growth factors of interest. For such reason, all data presented here show a single representative experiment of many independent replicate trials.
LDH Cytotoxicity Assay: The lactate dehydrogenase cytotoxicity assay (Promega) was performed following the manufacturer’s instructions. Briefly, following compound treatment, conditioned media were removed, and untreated wells were washed twice with phosphate buffered saline. To untreated wells was added 40 μL of low-serum media supplemented with lysis buffer provided in the kit (1:10), protease inhibitor cocktail (1:100), and phosphatase inhibitor cocktail 2 (1:100). Cells were lysed at 37 °C for 1 h. […] The wells were quenched with 50 μL of stop solution, and the plates were read at an absorbance wavelength of 490 nm.

C6 glioma cells [2] = experiment: WST-1 cell viability assay on C6 cells; format: cell-based, Rat; settings: for IC50: Rattus norvegicus, 48 h exposure, read-out: IC50 of cell proliferation / cell viability (WST-1)
Method: as §1
WST-1 Cell Viability Assay: After compound treatment, conditioned media were removed and replaced with 75 μL of warm low-serum media. To each well was added 5 μL of WST-1 Cell Proliferation Reagent (Roche Applied Science, Penzberg, Germany), and the cells were incubated at 37 °C for no more than 1 h. Plates were briefly shaken prior to reading the absorbance at 450 nm. Treatments were compared to vehicle control.

C6 glioma cells [3] = experiment: GDNF release by C6 cells (sandwich ELISA of culture medium); format: cell-based, Rat; settings: 48 h; for GDNF in the medium relative to negative control (GDNF/DMSO): initial screening, confluent C6 cells, 10 μM; for EC50: Rattus norvegicus, C6 glioma, read-out: EC50 of GDNF release; for maximum GDNF release relative to vehicle: dose-response assay, maximum at 10 µM
Method: as §1
GDNF release experiments: Into a 96-well plate were added C6 cells at a density of 25,300 cells/well in full growth medium (see above). Cells were allowed to adhere for 24 h at 37 °C. Cells were then serum-starved with media containing 0.5% FBS (low serum) for an additional 24 h. Low-serum media was refreshed prior to starting the experiment. Compounds were added in 50 μL of low-serum media to obtain a final volume of 200 μL/well. Treatments were performed in quadruplicate. […] Experiments were terminated by removing the conditioned media from each well and storing them at −80 °C until analyzed. GDNF was detected using a standard sandwich-style ELISA kit purchased from Promega Corporation (Madison, WI, USA) following the manufacturer’s instructions. Briefly, monoclonal anti-GDNF antibodies were captured onto a 96-well Nunc Immulon Immunoassay plate at a dilution of 1:1000 in carbonate coating buffer (25 mM sodium bicarbonate, 25 mM sodium carbonate, pH 8.2) overnight at 4 °C. After removing the monoclonal antibody, wells were blocked with 1× block and sample buffer for 1 h at RT (200 μL/well). A GDNF standard curve was created by serially diluting the recombinant human GDNF standard in 1× block and sample buffer to a concentration range of 0−1000 pg mL^−1. To each sample well was added 100 μL of conditioned media from above and the standard curve (in duplicate), and plates were incubated for 6 h with shaking at RT. After washing five times with TBST (150 mM sodium chloride, 10 mM Tris·HCl, 10 mM Tris base, 0.05% Tween 20, pH 7.6), wells were incubated with antihuman polyclonal GDNF antibodies (1:500) in 1× block and sample buffer overnight at 4 °C. Following an additional five washes with TBST, wells were incubated with antichicken IgY-HRP conjugate antibody (1:250) for 2 h with light shaking. After a final five washes, TMB One (100 μL/well) was added to each well and allowed to develop in the absence of light until there were clear differences in color between the highest and lowest concentrations of the standard curve. Wells were then quenched with 1 M HCl (100 μL/well), and the plates were read at an absorbance wavelength of 450 nm using a BioTek Synergy H1 plate reader.

[4] = system: bloodstream Trypanosoma brucei brucei; experiment: Bioluminescent viability assay on bloodstream T. b. brucei (LUC cell line); format: cell-based; settings: 24 h; for viability at 10 µM: read-out: Viability at 10 µM (%), bloodstream T. b. brucei, 10 µM, 24 h
Method: The anti-trypanosomal activity of compounds was evaluated against the bioluminescent cell line of the bloodstream stage of Trypanosoma brucei brucei (called LUC cell line) as previously described. Briefly, to a 96-well culture plate containing 2.2 μL/well DMSO (negative control) or compounds dissolved in DMSO (1% final concentration), 220 μL/well of a suspension of 1 × 10^5 parasites/mL was added. The plates were incubated at 37 °C and 5% CO2 for 24 h. Next, each well was transferred to a 96-well black plate and 20 μL of a solution containing D-Luciferin (1.5 mg/mL in PBS glucose 1% w/v) and Triton X-100 (0.05% vol/vol) was added. Bioluminescence signal was measured in a LUMIstar OPTIMA Microplate luminometer using the following settings: 10 s shaking, 5 s/well acquisition, 0.2 s measurement delay, maximum gain, and 37 °C. For the bioluminescence assay, parasite viability was calculated according to the following formula: Viability (%) = (BLcpd—BLblank)/ (Blneg—BLblank) × 100, where BL refers to the mean of bioluminescence signal corresponding to the tested compound (cpd), the blank (blank, complete media containing 1% v/v DMSO), or the negative control (neg, parasites treated with 1% v/v DMSO). EC50 values were determined from concentration-response curves fitted to a four-parameter sigmoid equation using the GraphPad Prism software (version 6.0). All errors are expressed as one SD.

[5] = system: bloodstream Trypanosoma brucei brucei; settings: read-out: EC50 (µM) against bloodstream T. b. brucei, same cell line and assay conditions, ref Benítez et al. 2020, cited from earlier work
[6] = read-out: EC50 (µM) against bloodstream T. b. brucei, mean SD (n = 3)
[7] = mean SD (n = 3), read-out: EC50 (µM) against bloodstream T. b. brucei
[8] = Trypanosoma brucei, mean SD (n = 3), read-out: EC50 (µM) against bloodstream T. b. brucei
[9] = Trypanosoma brucei, read-out: EC50 (µM) against bloodstream T. b. brucei, 24 h, mean SD (n = 3)

Structure (SMILES)	GDNF in the medium relative to negative control (GDNF/DMSO) (C6 glioma cells [3])	viability at 10 µM ([4]; Trypanosoma brucei) [%]	EC50 [4, 6]	EC50 [4, 7] [µM]	EC50 [4, 8] [µM]	maximum GDNF release relative to vehicle (C6 glioma cells [3]) [times]	further results
COC(=O)C1C2C=CC(C)(C3OC(C)(C)OC23)N1CCc1c[nH]c2ccccc12 [Compound 6, (1S, 3R, 4S, 5R, 6S)-Methyl N-(2-(3-indolyl)ethyl)-1-methyl-5,6-isopropylidendioxy-2-azabicycle[2.2.2]-7-octenen-3-carboxylate]	up to 6 times	24 ± 6	7.9 µM and 7.96 µM	–	–	–	concentrations with significant cell lysis / cell death (LDH) (C6 glioma cells [1]): 60 µM; concentrations at which cell viability is impaired (WST-1) (C6 glioma cells [2]; 48 h, dose-response 0.03 to 60 µM): ≥ 10 µM
COC(=O)C1C2C=CC(C)(C3OC(C)(C)OC23)N1CCc1c[nH]c2ccccc12 [Compound 7, (1S, 3S, 4S, 5S, 6R)-Methyl N-(2-(3-indolyl)ethyl)-1-methyl-5,6-isopropylidendioxy-2-azabicycle[2.2.2]-7-octenen-3-carboxylate]	–	–	–	31.5 ± 1.18	31.5	–	Viability at 10 µM (%) ([4]; bloodstream T. b. brucei, 10 µM): 42 ± 14%
CC(C)C(C)(C)[Si](C)(C)OCC1NC2(C)C=CC1C1OC(C)(C)OC12 [Compound 10exo, (1S, 3R, 4S, 5R, 6S)-1-Methyl-3-(dimethyl(1,1,2-trimethylpropyl)silyloxy)methyl-5,6-isopropylidendioxy-2-azabicycle[2.2.2]-7-octene]	–	64 ± 2	–	–	–	–	–
CC(C)C(C)(C)[Si](C)(C)OCC1C2C=CC(C)(C3OC(C)(C)OC23)N1CCc1c[nH]c2ccccc12 [Compound 11, (1S, 3R, 4S, 5S, 6R)-N-(2-(3-indolyl)ethyl)-1-methyl-3-(dimethyl(1,1,2-trimethylpropyl)silyloxy)methyl-5,6-isopropylidendioxy-2-azabicycle[2.2.2]-7-octene]	≤ 15 times	37 ± 6	–	7.95 ± 0.34	7.9	9	IC50 (C6 glioma cells [2]): 17.7 µM; EC50 (C6 glioma cells [3]; dose-response 0.03 to 60 µM): 3.46 µM
CC1(C)OC2C3C=CC(C)(C2O1)N(CCc1c[nH]c2ccccc12)C3CO [Compound 13, (1S, 3R, 4S, 5S, 6R)-N-(2-(3-indolyl)ethyl)-1-methyl-3-hydroxymethyl-5,6-isopropylidendioxy-2-azabicycle[2.2.2]-7-octene]	–	88	–	–	–	–	–
CC1(C)OC2C3C=CC(C)(C2O1)N(CCc1c[nH]c2ccccc12)C3COCc1ccccc1 [Compound 14, (1S, 3R, 4S, 5S, 6R)-N-(2-(3-indolyl)ethyl)-1-methyl-3-benzyloximethyl-5,6-isopropylidendioxy-2-azabicycle[2.2.2]-7-octene]	≤ 7 times	22 ± 12	1.27 ± 0.26 µM	–	–	23	lowest concentration with impairment in cell viability (WST-1) (C6 glioma cells [2]; 48 h, dose-response): ≥ 300 nM; EC50 (C6 glioma cells [3]): 20.1 µM; EC50 [4, 9]: 1.3 µM
CC1(C)OC2C3C=CC(C)(C2O1)N(CCc1c[nH]c2ccccc12)C3COC(=O)Cc1c[nH]c2ccccc12 [Compound 15, (1S, 3R, 4S, 5S, 6R)-N-(2-(3-indolyl)ethyl)-1-methyl-3-(2-(1H-3-indolyl)acetyloxy)methyl-5,6-isopropylidendioxy-2-azabicycle[2.2.2]-7-octene]	up to 60 times	0	–	3.47 ± 0.02	3.5	70	IC50 (C6 glioma cells [2]): 3.5 µM; EC50 (C6 glioma cells [3]; dose-response 0.03 to 60 µM): 6.79 µM
CC1CS(=O)(=O)CCN1/N=C/c1ccc([N+](=O)[O-])o1 (stereo not drawn) [Nifurtimox]	–	–	–	–	–	–	EC50 [5]: 5.3 µM; EC50 ([5]; listed as Nfx): 5.31 ± 0.44 µM
CCC1CC2C=CC1N(CCc1c[nH]c3ccc(F)cc13)C2 (stereo not drawn) [XL-008, reference compound]	~ 57 times	–	19.5 ± 0.3 µM	–	–	–	EC50 [4, 9]: 20 µM

— paper PMC8839081 (Molecules, 2022)
